# Results as given in patent publication US8680113B2, “BMI-1 protein expression modulators” (PTC Therapeutics, Inc., priority 2008, dated 2014).
# pEC50, pIC50: −log10 of the molar value.
# Tests used:
# Bmi-1 [1] = test: Cell Model Assay: Bmi-1 expression in HT1080; type: cell-based, human; conditions: HT1080 (fibrosarcoma)
# Description: (§1) Using assay conditions known to those skilled in the art, the ability of the compounds described herein to reduce Bmi-1 expression in HT1080 (fibrosarcoma), U87-MG (glioblastoma), T98G (glioblastoma), K562 (chronic myelogenous leukemia) and KG1 (acute myelogenous leukemia) cell lines was tested (at test compound concentrations calculated from the ELISA assay data shown in Example 1) compared to puromycin as a control to provide the EC50 values shown in Table 2. The term “ND” means that data was not determined.
# Bmi-1 [2] = test: Cell Model Assay: Bmi-1 expression in U87-MG; type: cell-based; conditions: U87-MG (glioblastoma)
# Description: as §1
# Bmi-1 [3] = test: Cell Model Assay: Bmi-1 expression in T98G; type: cell-based; conditions: T98G (glioblastoma)
# Description: as §1
# Bmi-1 [4] = test: Cell Model Assay: Bmi-1 expression in K562; type: cell-based; conditions: K562 (chronic myelogenous leukemia)
# Description: as §1
# Bmi-1 [5] = test: Cell Model Assay: Bmi-1 expression in KG1; type: cell-based; conditions: KG1 (acute myelogenous leukemia)
# Description: as §1
# Bmi-1 [6] = test: Sandwich ELISA Assay (Bmi-1 ELISA in HT-1080 cells); type: cell-based, human
# Summary of the method: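 Lysate Bmi-1 was quantified against a recombinant GST-Bmi-1 standard (0-8000 pg/mL) by sandwich ELISA read at OD450 with OD570 reference. The ELISA used mouse monoclonal capture, rabbit anti-Bmi-1, HRP anti-rabbit IgG and TMB. Before lysis, HT-1080 cells seeded at 8000/well were exposed to compounds for 40-48 h at 37°C with 0.5% final DMSO.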
# MCL-Jeko = test: Mantle Cell Lymphoma Assay: cytotoxicity, Jeko; type: cell-based; conditions: MCL-Jeko, 72 hrs
# Description: (§2) MCL cell lines Jeko, Mino, and Rec-1 were provided by American Type Culture Collection: The Bioresource Center (Manassas, Va.). […] Carlsbad, Calif.) in T-75 culture flasks. Cell concentration was maintained between 2 to 3×10^5 cells/mL. Early passage cells (passages 2-4) were used for all experiments. Ficoll-Histopaque density sedimentation (Sigma Aldrich) was used for separation of debris and purification of cell lines prior to experiments. […] The cytotoxic effect of test compounds on the MCL-cell lines was assessed by measuring cell concentration and cell viability using a Beckman Coulter Vi-Cell Counter. Controls and treated cells were harvested and counted at day 3.
# MCL-Mino = test: Mantle Cell Lymphoma Assay: cytotoxicity, Mino; type: cell-based; conditions: MCL-Mino, 72 hrs
# Description: as §2
# MCL-Rec1 = test: Mantle Cell Lymphoma Assay: cytotoxicity, Rec-1; type: cell-based; conditions: 72 hrs
# Description: as §2
# MM cell line = test: Multiple Myeloma Assay; type: cell-based; conditions: 72 hrs in culture
smiles,measurement,setting,value
"COc1ccc(C[C@H](N)C(=O)N[C@H]2[C@@H](O)[C@H](n3cnc4c(N(C)C)ncnc43)O[C@@H]2CO)cc1 [Control, puromycin, reference compound]",pEC50,Bmi-1 [1],6.35
same,pEC50,Bmi-1 [2],6.38
same,pEC50,Bmi-1 [3],6.64
same,pEC50,Bmi-1 [4],6.31
same,pEC50,Bmi-1 [5],5.96
"Cc1nc2ncccn2c1-c1csc(Nc2ccc(N(C)C)cc2)n1 [Cpd 12, N,N-dimethyl-N′-(4-(2-methylimidazo[1,2-a]pyrimidin-3-yl)thiazol-2-yl)benzene-1,4-diamine]",pIC50,Bmi-1 [6],> 6.30
same,pEC50,Bmi-1 [1],7.41
same,pEC50,Bmi-1 [2],6.96
same,pEC50,Bmi-1 [3],> 8.40
same,pEC50,Bmi-1 [4],8.00
same,pEC50,Bmi-1 [5],6.67
"COc1cc(Br)c(Nc2nc(-c3cnc4ccc(Cl)cn34)cs2)c(Br)c1 [Cpd 24, 4-(6-chloroimidazo[1,2-a]pyridine-3-yl)-N-(2,6-dibromo-4-methoxyphenyl)thiazol-2-amine]",pIC50,Bmi-1 [6],> 6.30
same,pEC50,Bmi-1 [1],6.51
same,pEC50,Bmi-1 [4],7.12
same,pEC50,Bmi-1 [5],6.92
same,Cell Concentration (×10^6),MCL-Jeko; 0.004 μM,1.95 ± 0.04 ×10^6
same,Cell Concentration (×10^6),MCL-Jeko; 0.037 μM,1.94 ± 0.02 ×10^6
same,Cell Concentration (×10^6),MCL-Jeko; 0.11 μM,1.92 ± 0.01 ×10^6
same,Cell Concentration (×10^6),MCL-Jeko; 0.33 μM,1.80 ± 0.03 ×10^6
same,Cell Concentration (×10^6),MCL-Jeko; 1 μM,0.76 ± 0.27 ×10^6
same,Cell Concentration (×10^6),MCL-Jeko; 3 μM,0.14 ± 0.01 ×10^6
same,Cell Concentration (×10^6),MCL-Mino; 0.004 μM,0.63 ± 0.01 ×10^6
same,Cell Concentration (×10^6),MCL-Mino; 0.037 μM,0.63 ± 0.01 ×10^6
same,Cell Concentration (×10^6),MCL-Mino; 0.11 μM,0.62 ± 0.01 ×10^6
same,Cell Concentration (×10^6),MCL-Mino; 0.33 μM,0.55 ± 0.01 ×10^6
same,Cell Concentration (×10^6),MCL-Mino; 1 μM,0.28 ± 0.02 ×10^6
same,Cell Concentration (×10^6),MCL-Mino; 3 μM,0.05 ± 0.01 ×10^6
same,Cell Concentration (×10^6),"MCL-Rec1; MCL-Rec1, 0.004 μM",0.36 ± 0.02 ×10^6
same,Cell Concentration (×10^6),"MCL-Rec1; MCL-Rec1, 0.037 μM",0.34 ± 0.01 ×10^6
same,Cell Concentration (×10^6),"MCL-Rec1; MCL-Rec1, 0.11 μM",0.34 ± 0.01 ×10^6
same,Cell Concentration (×10^6),"MCL-Rec1; MCL-Rec1, 0.33 μM",0.31 ± 0.01 ×10^6
same,Cell Concentration (×10^6),"MCL-Rec1; MCL-Rec1, 1 μM",0.06 ± 0.01 ×10^6
same,Cell Concentration (×10^6),"MCL-Rec1; MCL-Rec1, 3 μM",0.01 ± 0.00 ×10^6
same,"Cell Concentration, MM cell line",MM cell line; dose 0.004 μM,1.37 ± 0.03 ×10^6
same,"Cell Concentration, MM cell line",MM cell line; dose 0.037 μM,1.38 ± 0.04 ×10^6
same,"Cell Concentration, MM cell line",MM cell line; dose 0.11 μM,1.23 ± 0.01 ×10^6
same,"Cell Concentration, MM cell line",MM cell line; dose 0.33 μM,0.59 ± 0.04 ×10^6
same,"Cell Concentration, MM cell line",MM cell line; dose 1 μM,0.34 ± 0.14 ×10^6
same,"Cell Concentration, MM cell line",MM cell line; dose 3 μM,0.17 ± 0.01 ×10^6
"Cc1cc(Br)c(Nc2nc(-c3cnc4ccc(Cl)cn34)cs2)c(Br)c1 [Cpd 25, 4-(6-chloroimidazo[1,2-a]pyridine-3-yl)-N-(2,6-dibromo-4-methylphenyl)thiazol-2-amine]",pIC50,Bmi-1 [6],> 6.30
same,pEC50,Bmi-1 [4],7.00
same,pEC50,Bmi-1 [5],< 5.52
"COc1cc(Cl)c(Nc2nc(-c3cnc4ccc(Cl)cn34)cs2)c(Cl)c1 [Cpd 26, 4-(6-chloroimidazo[1,2-a]pyridine-3-yl)-N-(2,6-dichloro-4-methoxyphenyl)thiazol-2-amine]",pIC50,Bmi-1 [6],5.52 to 6.00
same,pEC50,Bmi-1 [4],6.63
same,pEC50,Bmi-1 [5],6.50
